Results taken from PMC6331909, “Identification of Eupatilin from Artemisia argyi as a Selective PPARα Agonist Using Affinity Selection Ultrafiltration LC-MS” (Molecules, 2015).
pIC50: −log10 of the molar value.

Columns and labels:
[1] = target: T1, PPARα (Homo sapiens, UniProt Q07869); test: TR-FRET competitive binding assay
T1 construct: gene PPARA
T1 sequence (Q07869 196-468 limits assumed): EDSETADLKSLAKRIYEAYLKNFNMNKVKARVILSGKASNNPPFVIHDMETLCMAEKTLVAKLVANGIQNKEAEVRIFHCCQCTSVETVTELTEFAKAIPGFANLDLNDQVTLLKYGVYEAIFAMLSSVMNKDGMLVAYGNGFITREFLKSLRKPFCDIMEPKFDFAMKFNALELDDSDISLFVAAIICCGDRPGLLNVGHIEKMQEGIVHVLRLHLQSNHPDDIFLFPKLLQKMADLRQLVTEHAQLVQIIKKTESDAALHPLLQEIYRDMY

[2] = target: T2, PPARγ (Homo sapiens, UniProt P37231); test: TR-FRET competitive binding assay
T2 construct: gene PPARG
T2 sequence (P37231 232-505 limits assumed): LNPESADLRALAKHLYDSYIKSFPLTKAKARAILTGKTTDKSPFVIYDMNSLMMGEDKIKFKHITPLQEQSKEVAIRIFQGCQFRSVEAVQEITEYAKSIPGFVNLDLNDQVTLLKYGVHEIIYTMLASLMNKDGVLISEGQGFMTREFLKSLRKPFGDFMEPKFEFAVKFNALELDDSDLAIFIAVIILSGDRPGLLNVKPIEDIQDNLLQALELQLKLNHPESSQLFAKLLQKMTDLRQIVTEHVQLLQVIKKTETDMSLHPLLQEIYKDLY

[3] = target: T1, PPARα; test: TR-FRET competitive binding assay; also ultrafiltration LC-MS and cell transactivation

CCC(=O)NC[C@H](Cc1ccc(OCCc2nc(-c3ccccc3)oc2C)cc1)N/C(C)=C\C(=O)c1ccc(C(F)(F)F)cc1 [GW6471]
pIC50 [1]: 6.64

O=C(Nc1ccccc1)c1cc([N+](=O)[O-])ccc1Cl [GW9662]
pIC50 [2]: 7.61

COc1ccc(-c2cc(=O)c3c(O)c(OC)c(O)cc3o2)cc1OC [eupatilin]
pIC50 [3]: 5.93
